Source: patent US7217739B2, “Method for inducing cell death with carbonyl scavengers” (Arizona Board of Regents on behalf of the University of …, priority 2004, dated 2007)

Key:
[1] = test system: Human HeLa cervical adenocarcinoma cells; experiment: Apoptosis in HeLa cervical adenocarcinoma cells; type: cell-based
Experimental: The efficacy of the compounds on other cancers, epithelial cancers in particular, was determined. Human HeLa cervical adenocarcinoma cells were used, and tested with D-penicillamine, at 10 mM, and aminoguanidine, at 25 mM.

[2] = test system: murine melanoma cell line B16; experiment: Apoptosis by annexin V-FITC/propidium iodide flow cytometry, B16 melanoma; type: cell-based; conditions: B16 cells; continuous 24 hour exposure; D-penicillamine 10 mM
Experimental: (§1) The murine melanoma cell line B16 was used, as were three human melanoma lines, i.e., G-361, A-375, and LOX. Samples of the cells were exposed to 10 mM of D-penicillamine continuously, over a 24 hour period. Apoptosis was measured using a standard assay, i.e., flow cytometric staining using annexin V-FITC/propidium iodide. As a control, normal human skin fibroblasts, i.e., “CF3” cells, were used.

[3] = test system: human melanoma line A-375; experiment: Apoptosis by annexin V-FITC/propidium iodide flow cytometry, A-375 melanoma; type: cell-based
Experimental: as §1
(§2) Malignant human melanoma cells A375, and normal fibroblasts (CF3), were tested, using 10 mM of MEC, with 24 hours of exposure.

[4] = test system: human melanoma cell line G-361; experiment: Apoptosis by annexin V-FITC/propidium iodide flow cytometry, G-361 melanoma; type: cell-based; conditions: G-361 cells
Experimental: as §1
The compound D-penicillamine (D-P), aminoguanidine (AG), N-acetyl-D-penicillamine (NAP), N-acetyl-L-cysteine (NAC), and penicillamine disulfide (PSS) were tested. D-P, NAC and NAP are known as antioxidants. D-P and aminoguanidine are known as carbonyl scavengers.

[5] = test system: premalignant, immortalized human keratinocytes HaCaT; experiment: Apoptosis in premalignant immortalized keratinocytes; type: cell-based; conditions: HaCaT cells; 12.5 mM; continuous over 24 hours
Experimental: In these experiments, D-penicillamine was added, at a concentration of 12.5 mM, to premalignant, immortalized human keratinocytes, or “HaCaT” cells, and the exposure was Continuous over 24 hours.

[6] = test system: CF3 fibroblast in collagen matrix; experiment: Dermal melanoma reconstruct, fibroblast network; type: cell-based, human; conditions: 12.5 mM; A375 and CF3 cells embedded in a collagen matrix
From the text: (§3) A dermal melanoma reconstruct was made, where both CF3 fibroblast and A375 melanoma cells were embedded in a collagen matrix. Seventy two hours after “seeding” in the matrix, the melanoma cells have proliferated extensively, as the controls show, in FIG. 7.

human melanoma line LOX = experiment: Apoptosis by annexin V-FITC/propidium iodide flow cytometry, LOX melanoma; type: cell-based; conditions: LOX cells; continuous 24 hour exposure; D-penicillamine 10 mM
Experimental: as §1

human A431 cells = experiment: Apoptosis in squamous cell carcinoma line A431; type: cell-based; conditions: 10 mM, 24 hours
Experimental: In each case, 10 mM of the test compound was used, over 24 hours, on human A431 cells, and apoptosis was measured as described, supra.

[7] = test system: A375 melanoma cells in collagen matrix; experiment: Dermal melanoma reconstruct, melanoma cells; type: cell-based, human; conditions: 12.5 mM; A375 and CF3 cells embedded in a collagen matrix
From the text: as §3

[8] = test system: normal human skin fibroblasts CF3; experiment: Apoptosis by annexin V-FITC/propidium iodide flow cytometry, normal CF3 fibroblasts; type: cell-based
Experimental: as §1, §2

[9] = Example 6, concentration not given

CC(C)(S)[C@@H](N)C(=O)O [D-penicillamine, 3-mercapto-D-valine]
induction of apoptosis ([1]; 10 mM): apoptosis inducers | induction of apoptosis [2]: apoptosis was induced | induction of apoptosis ([3]; A-375 cells, continuous 24 hour exposure, D-penicillamine 10 mM): apoptosis was induced | induction of apoptosis [4, 9]: induced apoptosis | induction of apoptosis ([4]; continuous 24 hour exposure, D-penicillamine 10 mM): apoptosis was induced | induction of apoptosis [5]: apoptosis is indicated | structure integrity of the fibroblast collagen network [6]: maintained the structure integrity of the fibroblast collagen network | induction of apoptosis (human melanoma line LOX): apoptosis was induced | induction of apoptosis (human A431 cells): induction of apoptosis | elimination of melanoma cells from dermal melanoma reconstruct [7]: eliminated the melanoma cells | induction of apoptosis ([8]; normal CF3 cells, continuous 24 hour exposure, D-penicillamine 10 mM): no change

N=C(N)NN [aminoguanidine]
induction of apoptosis ([1]; 25 mM): apoptosis inducers | induction of apoptosis [4, 9]: induced apoptosis

COC(=O)[C@H](N)C(C)(C)S [D-penicillamine methyl ester]
induction of apoptosis (human A431 cells): induction of apoptosis | induction of apoptosis (human A431 cells; listed as D-P—OCH3): stronger apoptotic effect

CCC(C)(S)[C@H](N)C(=O)O (stereo partly drawn) [MEC, 3-methyl-3-ethyl-L-cysteine]
induction of apoptosis ([3]; A375 cells, 10 mM of MEC, 24 hours of exposure): Pronounced induction of apoptosis | induction of apoptosis ([8]; normal CF3 fibroblasts, 10 mM of MEC, 24 hours of exposure): none was observed
